PMC11165695 (Nature methods, 2024)

Tests used:
SJSA-1 cells = experiment: Apoptosis induction / caspase-3/7 activation; assay type: cell-based; conditions: Supplementary Figure 14
[1] = system: alkaline phosphatase (ALP); conditions: pNPP 200 μM, ALP 0.5 U/mL, PBS, room temperature, UV absorbance 405 nm

| Compound | apoptosis induction (SJSA-1 cells) | initial speed (v0), standard substrate [1] [nmol/min] |
| --- | --- | --- |
| COc1cccc2c1C(=O)c1c(O)c3c(c(O)c1C2=O)C[C@@](O)(C(=O)CO)C[C@@H]3O[C@H]1C[C@H](N)[C@H](O)[C@H](C)O1 [Doxorubicin] | efficiently induces apoptosis |  |
| O=[N+]([O-])c1ccc(OP(=O)(O)O)cc1 [P-nitrophenyl phosphate] |  | 0.53 |
